Reference: US9650340B2, “5-fluoro-N-(pyridin-2-yl)pyridin-2-amine derivatives containing a sulfoximine group” (BAYER PHARMA AKTIENGESELLSCHAFT, priority 2012, dated 2017)
Converted amounts (≈) assume the structure as drawn.

Columns and labels:
[1] = tested on: Caco-2, human colorectal carcinoma cells; assay: Proliferation assay, Caco-2 (crystal violet); assay type: cell-based; details: Homo sapiens, Caco-2, 96 h, Caco-2, 4 days; read-out: Inhibition of Caco-2 cell proliferation IC50
Experimental: (§1) Cultivated tumour cells (HeLa, human cervical tumour cells, ATCC CCL-2; NCI-H460, human non-small cell lung carcinoma cells, ATCC HTB-177; A2780, human ovarian carcinoma cells, ECACC #93112519; DU 145, hormone-independent human prostate carcinoma cells, ATCC HTB-81; HeLa-MaTu-ADR, multidrug-resistant human cervical carcinoma cells, EPO-GmbH Berlin; Caco-2, human colorectal carcinoma cells, ATCC HTB-37; B16F10, mouse melanoma cells, ATCC CRL-6475) were plated at a density of 5,000 cells/well (DU145, HeLa-MaTu-ADR), 3,000 cells/well (NCI-H460, HeLa), 2,500 cells/well (A2780), 1,500 cells/well (Caco-2), or 1,000 cells/well (B16F10) in a 96-well multititer plate in 200 μL of their respective growth medium supplemented 10% fetal calf serum. After 24 hours, the cells of one plate (zero-point plate) were stained with crystal violet (see below), while the medium of the other plates was replaced by fresh culture medium (200 μl), to which the test substances were added in various concentrations (0 μM, as well as in the range of 0.001-10 μM; the final concentration of the solvent dimethyl sulfoxide was 0.5%). The cells were incubated for 4 days in the presence of test substances. Cell proliferation was determined by staining the cells with crystal violet: the cells were fixed by adding 20 μl/measuring point of an 11% glutaric aldehyde solution for 15 minutes at room temperature. After three washing cycles of the fixed cells with water, the plates were dried at room temperature. The cells were stained by adding 100 μl/measuring point of a 0.1% crystal violet solution (pH 3.0). After three washing cycles of the stained cells with water, the plates were dried at room temperature. The dye was dissolved by adding 100 μl/measuring point of a 10% acetic acid solution. The extinction was determined by photometry at a wavelength of 595 nm. The change of cell number, in percent, was calculated by normalization of the measured values to the extinction values of the zero-point plate (=0%) and the extinction of the untreated (0 μm) cells (=100%). The IC50 values (inhibitory concentration at 50% of maximal effect) were determined by means of a 4 parameter fit. Non-adherent MOLM-13 human acute myeloid leukemia cells (DSMZ ACC 554) were seeded at a density of 5,000 cells/well in a 96-well multititer plate in 100 μL of growth medium supplemented 10% fetal calf serum. After 24 hours, cell viability of one plate (zero-point plate) was determined with the Cell Titre-Glo Luminescent Cell Viability Assay (Promega), while 50 μL of test compound containing medium was added to the wells of the other plates (final concentrations in the range of 0.001-10 μM and DMSO controls; the final concentration of the solvent dimethyl sulfoxide was 0.5%). Cell viability was assessed after 72-hour exposure with the Cell Titre-Glo Luminescent Cell Viability Assay (Promega).

[2] = Equilibrium shake flask solubility assay, thermodynamic solubility in citrate buffer pH 4; assay type: physicochemical; details: citrate buffer, pH 4, aqueous buffer, thermodynamic from solid, citrate buffer pH 4, 24 h, room temperature; read-out: Solubility in aqueous Citrate buffer pH4
Experimental: 4b) Thermodynamic Solubility in Citrate Buffer pH 4
Thermodynamic solubility was determined by an equilibrium shake flask method [Literature: Edward H. Kerns and Li Di (2008) Solubility Methods in: Drug-like Properties: Concepts, Structure Design and Methods, p276-286. Burlington, Mass.: Academic Press].
A saturated solution of the drug was prepared and the solution was mixed for 24 h to ensure that equilibrium has been reached. The solution was centrifuged to remove the insoluble fraction and the concentration of the compound in solution was determined using a standard calibration curve.
To prepare the sample, 1.5 mg solid compound was weighed in a 4 ml glass vial. 1 ml Citrate buffer pH 4 was added. The suspension was put on a stirrer and mixed for 24 hrs at room temperature. The solution was centrifuged afterwards. To prepare the sample for the standard calibration, 0.6 mg solid sample was dissolved in 19 ml acetonitrile/water 1:1. After sonification the solution was filled up with acetonitrile/water 1:1 to 20 ml.
Sample and standards were quantified by HPLC with UV-detection. For each sample two injection volumes (5 and 50 μl) in triplicates were made. Three injection volumes (5 μl, 10 μl and 20 μl) were made for the standard.
The areas of sample- and standard injections as well as the calculation of the solubility value (in mg/l) were determined by using HPLC software (Waters Empower 2 FR).

[3] = tested on: MOLM-13 human acute myeloid leukemia cells; assay: Proliferation assay, MOLM-13 (Cell Titre-Glo); assay type: cell-based; details: Homo sapiens, MOLM-13, 72 h, MOLM-13, 72-hour exposure; read-out: Inhibition of MOLM-13 cell proliferation IC50
Experimental: as §1

CDK9/CycT1 = target: T1, CDK9/CycT1 (Homo sapiens, UniProt P50750); assay: CDK9/CycT1 kinase assay (TR-FRET, 10 μM ATP); assay type: biochemical; details: Method 1a
T1 construct: Recombinant full-length His-tagged human CDK9 and CycT1; His; purchased Invitrogen PV4131; host or cells: insect cells
Excerpt: 1a. CDK9/CyeT1 Kinase Assay:
CDK9/CycT1-inhibitory activity of compounds of the present invention was quantified employing the CDK9/CycT1 TR-FRET assay as described in the following paragraphs:
Recombinant full-length His-tagged human CDK9 and CycT1, expressed in insect cells and purified by Ni-NTA affinity chromatography, were purchased from Invitrogen (Cat. No PV4131). As substrate for the kinase reaction biotinylated peptide biotin-Ttds-[…] (C-terminus in amid form) was used which can be purchased e.g. form the company JERINI Peptide Technologies (Berlin, Germany). For the assay 50 nl of a 100 fold concentrated solution of the test compound in DMSO was pipetted into a black low volume 384 well microtiter plate (Greiner Bio-One, Frickenhausen, Germany), 2 μl of a solution of CDK9/CycT1 in aqueous assay buffer [50 mM Tris/HCl pH 8.0, 10 mM MgCl2, 1.0 mM dithiothreitol, 0.1 mM sodium ortho-vanadate, 0.01% (v/v) Nonidet-P40 (Sigma)] were added and the mixture was incubated for 15 min at 22° C. to allow pre-binding of the test compounds to the enzyme before the start of the kinase reaction.
The resulting mixture was incubated 1 h at 22° C. to allow the formation of complex between the phosphorylated biotinylated peptide and the detection reagents. Subsequently the amount of phosphorylated substrate was evaluated by measurement of the resonance energy transfer from the Eu-chelate to the streptavidine-XL.

[4] = tested on: A2780, human ovarian carcinoma cells; assay: Proliferation assay, A2780 (crystal violet); assay type: cell-based; details: Homo sapiens, A2780, 96 h, A2780, 4 days; read-out: Inhibition of A2780 cell proliferation IC50
Experimental: as §1

T1 sequence (P50750 whole entry): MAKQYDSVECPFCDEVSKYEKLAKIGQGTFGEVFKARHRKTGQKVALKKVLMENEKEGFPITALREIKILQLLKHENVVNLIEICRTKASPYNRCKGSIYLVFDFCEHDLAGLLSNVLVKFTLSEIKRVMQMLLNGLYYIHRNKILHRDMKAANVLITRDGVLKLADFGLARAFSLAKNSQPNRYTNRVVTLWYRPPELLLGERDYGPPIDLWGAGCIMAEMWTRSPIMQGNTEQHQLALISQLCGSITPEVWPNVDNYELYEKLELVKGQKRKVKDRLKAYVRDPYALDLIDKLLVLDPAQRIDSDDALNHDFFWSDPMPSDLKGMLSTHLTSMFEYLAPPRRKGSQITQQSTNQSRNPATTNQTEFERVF
T1 sequence (O60563 whole entry partner): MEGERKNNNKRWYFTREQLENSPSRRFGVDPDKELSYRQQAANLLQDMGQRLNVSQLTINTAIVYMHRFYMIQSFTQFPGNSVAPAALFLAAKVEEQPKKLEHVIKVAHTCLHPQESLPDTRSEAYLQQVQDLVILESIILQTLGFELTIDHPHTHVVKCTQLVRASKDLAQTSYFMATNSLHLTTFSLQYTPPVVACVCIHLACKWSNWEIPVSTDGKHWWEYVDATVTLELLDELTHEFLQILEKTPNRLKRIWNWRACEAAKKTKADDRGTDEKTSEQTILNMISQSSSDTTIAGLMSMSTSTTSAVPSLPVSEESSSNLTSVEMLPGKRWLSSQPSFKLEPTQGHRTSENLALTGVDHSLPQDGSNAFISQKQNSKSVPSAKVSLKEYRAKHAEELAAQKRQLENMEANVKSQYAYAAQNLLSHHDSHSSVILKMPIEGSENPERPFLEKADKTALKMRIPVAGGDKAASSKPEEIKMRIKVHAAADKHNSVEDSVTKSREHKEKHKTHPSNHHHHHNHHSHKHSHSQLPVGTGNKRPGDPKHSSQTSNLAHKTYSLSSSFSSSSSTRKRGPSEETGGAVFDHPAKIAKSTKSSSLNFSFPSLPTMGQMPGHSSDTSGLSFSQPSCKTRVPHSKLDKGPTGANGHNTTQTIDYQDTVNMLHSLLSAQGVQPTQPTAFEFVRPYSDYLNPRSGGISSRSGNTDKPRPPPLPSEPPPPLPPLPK

IC50 [1] [nM] | solubility at 24 h [2] [µg/mL] | IC50 [3] [nM] | IC50 (CDK9/CycT1) [nM] | IC50 [4] [nM] | SMILES
57 | 3 (≈ 7.1 µM) | 20 | 0.9 | 14 | COc1cc(F)ccc1-c1cc(Nc2cc(CS(C)(=N)=O)cc(F)n2)ncc1F (racemic) [Example 17, (rac)-5-Fluoro-4-(4-fluoro-2-methoxyphenyl)-N-{6-fluoro-4-[(S-methylsulfonimidoyl)methyl]pyridin-2-yl}pyridin-2-amine]
38 | 102 (≈ 238 µM) | 12 | 4 | 10 | COc1cc(F)ccc1-c1cc(Nc2cc(CS(C)(=O)=NC#N)ccn2)ncc1F (single isomer, unassigned) [Example 10, {[(2-{[5-Fluoro-4-(4-fluoro-2-methoxyphenyl)pyridin-2-yl]amino}pyridin-4-yl)methyl](methyl)oxido-λ^6-sulfanylidene}cyanamide]
38 | 52 (≈ 110 µM) | 10 | 2 | 12 | COc1cc(F)ccc1-c1cc(Nc2cc(CS(C)(=N)=O)cc(C(F)(F)F)n2)ncc1F (single isomer, unassigned; (+)) [Example 22, (+)-5-Fluoro-4-(4-fluoro-2-methoxyphenyl)-N-{4-[(S-methylsulfonimidoyl)methyl]-6-(trifluoromethyl)pyridin-2-yl}pyridin-2-amine]
